Converted amounts (≈) assume the structure as drawn. Where two headings read alike, the source gives them in different places.
What was measured:
Test in all cases: Minimum Inhibitory Concentration (MIC), agar dilution, standard strains
[1] = system: Staphylococcus aureus giorgio; assay type: cell-based; conditions: Mueller-Hinton agar, 37° C., 20 hours; for MIC: Staphylococcus aureus, read-out: Minimum Inhibitory Concentration, Staphylococcus aureus giorgio
Procedure: (§1) The effectiveness of the compound according to the present invention was determined by obtaining Minimum Inhibitory Concentration (MIC) of the compounds prepared by the above examples (Compounds I-1 to I-41) and vancomycin, which is the known compound having a potent activity against gram-positive strains, as the control drug against the standard strains. Specifically, Minimum Inhibitory Concentration was obtained by diluting the test compound according to a double dilution method, dispersing them in Mueller-Hinton agar medium, inoculating each of the test strain having 10^7 cfu (colony forming unit) per ml in an amount of 2 μl to the medium and then incubating them at 37° C. for 20 hours. From the result of Minimum Inhibitory Concentration test, it can be seen that the compound according to the present invention has a good activity against major pathogenic microorganisms, which cause hospital infection, including MRSA strains.

[2] = system: S. epidermidis R005; assay type: cell-based; conditions: Mueller-Hinton agar, 37° C., 20 hours; for MIC: Staphylococcus epidermidis, R005, read-out: Minimum Inhibitory Concentration, S. epidermidis R005
Procedure: as §1

[3] = system: E. faecalis EFS004; assay type: cell-based; conditions: Enterococcus faecalis, EFS004; Table 2; Mueller-Hinton agar, 37° C., 20 hours; read-out: Minimum Inhibitory Concentration, E. faecalis EFS004
Procedure: as §1

[4] = system: S. aureus 77; assay type: cell-based, Staphylococcus aureus; conditions: Mueller-Hinton agar, 37° C., 20 hours; for MIC: Staphylococcus aureus, 77, read-out: Minimum Inhibitory Concentration, S. aureus 77
Procedure: as §1

[5] = system: S. aureus K311; assay type: cell-based, Staphylococcus aureus; conditions: Staphylococcus aureus, K311; Table 2; Mueller-Hinton agar, 37° C., 20 hours; read-out: Minimum Inhibitory Concentration, S. aureus K311
Procedure: as §1

[6] = system: E. faecalis L239; assay type: cell-based; conditions: Table 1, Mueller-Hinton agar, 37° C., 20 hours; for MIC: Enterococcus faecalis, L239, read-out: Minimum Inhibitory Concentration, E. faecalis L239
Procedure: as §1

[7] = system: S. aureus 241; assay type: cell-based, Staphylococcus aureus; conditions: Table 1, Mueller-Hinton agar, 37° C., 20 hours; for MIC: Staphylococcus aureus, 241, read-out: Minimum Inhibitory Concentration, S. aureus 241
Procedure: as §1

CCSc1nc(C)cc(SC/C=C/C2=C(C(=O)O)N3C(=O)[C@@H](NC(=O)CSc4cc(Cl)nc(Cl)c4)[C@H]3SC2)n1 [Compound I-12, (6R,7R)-7-({2-[(2,6-dichloro-4-pyridinyl)sulfanyl]acetyl}amino)-3-((E)-3-{[2-(ethylsulfanyl)-6-methyl-4-pyrimidinyl]sulfanyl}-1-propenyl)-8-oxo-5-thia-1-azabicyclo[4.2.0]oct-2-ene-2-carboxylic acid]
MIC ([1]; Table 2): 0.031 µg/mL (≈ 0.0481 µM)
MIC ([2]; Table 2): 0.5 µg/mL (≈ 0.776 µM)
MIC [3]: 0.5 µg/mL (≈ 0.776 µM)
MIC ([4]; Table 2): 0.5 µg/mL (≈ 0.776 µM)
MIC [5]: 1 µg/mL (≈ 1.55 µM)

O=C(CSc1cc(Cl)nc(Cl)c1)N[C@@H]1C(=O)N2C(C(=O)O)=C(/C=C/CSc3ncnc4[nH]ncc34)CS[C@H]12 [Compound I-7, (6R,7R)-7-({2-[(2,6-dichloro-4-pyridinyl)sulfanyl]acetyl}amino)-8-oxo-3-[(E)-3-(1H-pyrazolo[3,4-d]pyrimidin-4-ylsulfanyl]-1-propenyl]-5-thia-1-azabicyclo[4.2.0]oct-2-ene-2-carboxylic acid]
MIC ([1]; Table 2): < 0.008 µg/mL
MIC ([2]; Table 2): 0.25 µg/mL (≈ 0.409 µM)
MIC [3]: 0.5 µg/mL (≈ 0.819 µM)
MIC ([4]; Table 2): 0.25 µg/mL (≈ 0.409 µM)
MIC [5]: 0.5 µg/mL (≈ 0.819 µM)

O=C(CSc1cc(Cl)nc(Cl)c1)N[C@@H]1C(=O)N2C(C(=O)O)=C(/C=C/CSc3nc(O)cc(NCCO)n3)CS[C@H]12 [Compound I-15, (6R,7R)-7-({2-[(2,6-dichloro-4-pyridinyl)sulfanyl]acetyl}amino)-3-[(E)-3-({4-hydroxy-6-[(2-hydroxyethyl)amino]-2-pyrimidinyl]sulfanyl}-1-propenyl]-8-oxo-5-thia-1-azabicyclo[4.2.0]oct-2-ene-2-carboxylic acid]
MIC ([1]; Table 2): 0.031 µg/mL (≈ 0.048 µM)
MIC ([2]; Table 2): 0.5 µg/mL (≈ 0.775 µM)
MIC [3]: 1 µg/mL (≈ 1.55 µM)
MIC ([4]; Table 2): 0.5 µg/mL (≈ 0.775 µM)
MIC [5]: 0.5 µg/mL (≈ 0.775 µM)

Nc1nc(SC/C=C/C2=C(C(=O)O)N3C(=O)[C@@H](NC(=O)CSc4cc(Cl)nc(Cl)c4)[C@H]3SC2)nc2[nH]ncc12 [Compound I-9, (6R,7R)-3-{(E)-3-[(4-amino-1H-pyrazolo[3,4-d]pyrimidin-6-yl)sulfanyl]-1-propenyl}-7-({2-[(2,6-dichloro-4-pyridinyl)sulfanyl]acetyl}amino)-8-oxo-5-thia-1-azabicyclo[4.2.0]oct-2-ene-2-carboxylic acid]
MIC ([1]; Table 2): 0.031 µg/mL (≈ 0.0496 µM)
MIC ([2]; Table 2): 0.5 µg/mL (≈ 0.799 µM)
MIC [3]: 1 µg/mL (≈ 1.6 µM)
MIC ([4]; Table 2): 0.25 µg/mL (≈ 0.4 µM)
MIC [5]: 1 µg/mL (≈ 1.6 µM)

Nc1nc[n+](C/C=C/C2=C(C(=O)O)N3C(=O)[C@@H](NC(=O)CSc4cc(Cl)ccc4Cl)[C@H]3SC2)c(N)c1N [Compound I-35]
Minimum Inhibitory Concentration, E. faecalis L239 [6]: 0.5 µg/mL
Minimum Inhibitory Concentration, Staphylococcus aureus giorgio ([1]; Table 1): 0.016 µg/mL
Minimum Inhibitory Concentration, S. epidermidis R005 ([2]; Table 1): 0.25 µg/mL
Minimum Inhibitory Concentration, S. aureus 241 [7]: 2 µg/mL
Minimum Inhibitory Concentration, S. aureus 77 ([4]; Table 1): 0.25 µg/mL

Nc1nc2cc(N)[n+](C/C=C/C3=C(C(=O)O)N4C(=O)[C@@H](NC(=O)CSc5cc(Cl)ccc5Cl)[C@H]4SC3)cn2n1 [Compound I-32]
Minimum Inhibitory Concentration, E. faecalis L239 [6]: 1 µg/mL
Minimum Inhibitory Concentration, Staphylococcus aureus giorgio ([1]; Table 1): 0.016 µg/mL
Minimum Inhibitory Concentration, S. epidermidis R005 ([2]; Table 1): 0.25 µg/mL
Minimum Inhibitory Concentration, S. aureus 241 [7]: 4 µg/mL
Minimum Inhibitory Concentration, S. aureus 77 ([4]; Table 1): 0.5 µg/mL

Cc1nc(N)cc[n+]1C/C=C/C1=C(C(=O)O)N2C(=O)[C@@H](NC(=O)CSc3cc(Cl)ccc3Cl)[C@H]2SC1 [Compound I-33]
Minimum Inhibitory Concentration, E. faecalis L239 [6]: 0.5 µg/mL
Minimum Inhibitory Concentration, Staphylococcus aureus giorgio ([1]; Table 1): <0.008 µg/mL
Minimum Inhibitory Concentration, S. epidermidis R005 ([2]; Table 1): 0.063 µg/mL
Minimum Inhibitory Concentration, S. aureus 241 [7]: 2 µg/mL
Minimum Inhibitory Concentration, S. aureus 77 ([4]; Table 1): 0.26 µg/mL

Nc1nc(O)cc(SC/C=C/C2=C(C(=O)O)N3C(=O)[C@@H](NC(=O)CSc4cc(Cl)ccc4Cl)[C@H]3SC2)n1 [Compound I-1, (6R,7R)-3-{(E)-3-[(2-amino-6-hydroxy-4-pyrimidinyl)sulfanyl]-1-propenyl}-7-({2-[(2,5-dichlorophenyl)sulfanyl]acetyl}amino)-8-oxo-5-thia-1-azabicyclo[4.2.0]oct-2-ene-2-carboxylic acid]
MIC [6]: 0.25 µg/mL (≈ 0.416 µM)
MIC ([1]; Table 1): < 0.008 µg/mL
MIC ([2]; Table 1): 0.13 µg/mL (≈ 0.216 µM)
MIC [7]: 4 µg/mL (≈ 6.66 µM)
MIC ([4]; Table 1): 0.25 µg/mL (≈ 0.416 µM)

Nc1nc(SC/C=C/C2=C(C(=O)O)N3C(=O)[C@@H](NC(=O)CSc4cc(Cl)ccc4Cl)[C@H]3SC2)c2c([n+]1N)CCC2 [Compound I-21]
Minimum Inhibitory Concentration, E. faecalis L239 [6]: 0.25 µg/mL
Minimum Inhibitory Concentration, Staphylococcus aureus giorgio ([1]; Table 1): <0.008 µg/mL
Minimum Inhibitory Concentration, S. epidermidis R005 ([2]; Table 1): 0.063 µg/mL
Minimum Inhibitory Concentration, S. aureus 241 [7]: 1 µg/mL
Minimum Inhibitory Concentration, S. aureus 77 ([4]; Table 1): 0.063 µg/mL

Cc1c(N)nc[n+](C/C=C/C2=C(C(=O)O)N3C(=O)[C@@H](NC(=O)CSc4cc(Cl)ccc4Cl)[C@H]3SC2)c1N [Compound I-31]
Minimum Inhibitory Concentration, E. faecalis L239 [6]: 2 µg/mL
Minimum Inhibitory Concentration, Staphylococcus aureus giorgio ([1]; Table 1): 0.016 µg/mL
Minimum Inhibitory Concentration, S. epidermidis R005 ([2]; Table 1): 0.25 µg/mL
Minimum Inhibitory Concentration, S. aureus 241 [7]: 8 µg/mL
Minimum Inhibitory Concentration, S. aureus 77 ([4]; Table 1): 1 µg/mL

CNc1cc(N)nc(C)[n+]1C/C=C/C1=C(C(=O)O)N2C(=O)[C@@H](NC(=O)CSc3cc(Cl)ccc3Cl)[C@H]2SC1 [Compound I-38, 4-amino-1-{(E)-3-[(6R,7R)-2-carboxy-7-({2-[(2,5-dichlorophenyl)sulfanyl]acetyl}amino)-8-oxo-5-thia-1-azabicyclo[4.2.0]oct-2-en-3-yl]-2-propenyl}-2-methyl-6-(methylamino)pyrimidin-1-ium]
Minimum Inhibitory Concentration, E. faecalis L239 [6]: 1 µg/mL
Minimum Inhibitory Concentration, Staphylococcus aureus giorgio ([1]; Table 1): 0.031 µg/mL
Minimum Inhibitory Concentration, S. epidermidis R005 ([2]; Table 1): 0.5 µg/mL
Minimum Inhibitory Concentration, S. aureus 241 [7]: 8 µg/mL
Minimum Inhibitory Concentration, S. aureus 77 ([4]; Table 1): 1 µg/mL

Nc1cc(SC/C=C/C2=C(C(=O)O)N3C(=O)[C@@H](NC(=O)CSc4cc(Cl)ccc4Cl)[C@H]3SC2)nc(N)n1 [Compound I-3, (6R,7R)-3-{(E)-3-[(2,6-diamino-4-pyrimidinyl)sulfanyl]-1-propenyl}-7-({2-[(2,5-dichlorophenyl)sulfanyl]acetyl}amino)-8-oxo-5-thia-1-azabicyclo[4.2.0]oct-2-ene-2-carboxylic acid]
MIC [6]: 0.5 µg/mL (≈ 0.834 µM)
MIC ([1]; Table 1): < 0.008 µg/mL
MIC ([2]; Table 1): 0.13 µg/mL (≈ 0.217 µM)
MIC [7]: 4 µg/mL (≈ 6.67 µM)
MIC ([4]; Table 1): 0.13 µg/mL (≈ 0.217 µM)

Nc1nc(SC/C=C/C2=C(C(=O)O)N3C(=O)[C@@H](NC(=O)CSc4cc(Cl)ccc4Cl)[C@H]3SC2)nc2c1CCC2 [Compound I-20, (6R,7R)-3-{(E)-3-[(4-amino-6,7-dihydro-5H-cyclopenta[d]pyrimidin-2-yl)sulfanyl]-1-propenyl}-7-({2-[(2,5-dichlorophenyl)sulfanyl]acetyl}amino)-8-oxo-5-thia-1-azabicyclo[4.2.0]oct-2-ene-2-carboxylic acid]
MIC [6]: 2 µg/mL (≈ 3.2 µM)
MIC ([1]; Table 1): 0.063 µg/mL (≈ 0.101 µM)
MIC ([2]; Table 1): 2 µg/mL (≈ 3.2 µM)
MIC [7]: 32 µg/mL (≈ 51.2 µM)
MIC ([4]; Table 1): 2 µg/mL (≈ 3.2 µM)

Nc1cc[n+](N)c(SC/C=C/C2=C(C(=O)O)N3C(=O)[C@@H](NC(=O)CSc4cc(Cl)ccc4Cl)[C@H]3SC2)n1 [Compound I-4, 1,4-diamino-2-({(E)-3-[(6R,7R)-2-carboxy-7-({2-[(2,5-dichlorophenyl)sulfanyl]acetyl}amino)-8-oxo-5-thia-1-azabicyclo[4.2.0]oct-2-en-3-yl]-2-propenyl}sulfanyl) pyrimidin-1-ium]
Minimum Inhibitory Concentration, E. faecalis L239 [6]: 0.5 µg/mL
Minimum Inhibitory Concentration, Staphylococcus aureus giorgio ([1]; Table 1): <0.008 µg/mL
Minimum Inhibitory Concentration, S. epidermidis R005 ([2]; Table 1): 0.13 µg/mL
Minimum Inhibitory Concentration, S. aureus 241 [7]: 1 µg/mL
Minimum Inhibitory Concentration, S. aureus 77 ([4]; Table 1): 0.13 µg/mL

Nc1cc(N)nc(SC/C=C/C2=C(C(=O)O)N3C(=O)[C@@H](NC(=O)CSc4cc(Cl)ccc4Cl)[C@H]3SC2)n1 [Compound I-24, (6R,7R)-3-{(E)-3-[(4,6-diamino-2-pyrimidinyl)sulfanyl]-1-propenyl}-7-({2-[(2,5-dichlorophenyl)sulfanyl]acetyl}amino)-8-oxo-5-thia-1-azabicyclo[4.2.0]oct-2-ene-2-carboxylic acid]
MIC [6]: 0.5 µg/mL (≈ 0.834 µM)
MIC ([1]; Table 1): 0.016 µg/mL (≈ 0.0267 µM)
MIC ([2]; Table 1): 0.13 µg/mL (≈ 0.217 µM)
MIC [7]: 4 µg/mL (≈ 6.67 µM)
MIC ([4]; Table 1): 0.25 µg/mL (≈ 0.417 µM)

Reference: patent publication US20030162762A1, “Novel cephalosporin compounds and process for preparing the same” (priority 2000, published 2003)
